One test concerns mice fed a high-fat diet. Description: Diet-induced obesity in mice. The test is classed as in vivo. The following applies: high-fat diet days 0 to 4, 10 mg/kg by gavage once daily for four days, versus vehicle control. As to the method:
Lean mice (male, approx. 5 weeks of age, purchased from The Jackson Laboratory, Bar Harbor, Me.) were maintained in individual cages at 22° C. on a 12:12 hr light/dark cycle. The “treated” mice (N=12) were administered a Thiazole Derivative (10 mg/kg) by gavage once daily for four consecutive days. Control mice (N=12) were administered vehicle only, once daily for four days. Both control and treated mice were fed a high-fat diet from days 0 to 4 and body weight and food intake was monitored daily. The percent inhibition for weight gain and food intake was calculated by comparing the increase in weight gain and food intake in the treated mice to the increase in weight gain and food intake in the control mice.

For test [1], the target named is T1, recombinant human H3 receptor, expressed in HEK-293 cells (Homo sapiens, UniProt Q9Y5N1).
T1 construct: expressed in transfected cells; host or cells: HEK-293 (human embryonic kidney) cells
T1 sequence (Q9Y5N1 whole entry): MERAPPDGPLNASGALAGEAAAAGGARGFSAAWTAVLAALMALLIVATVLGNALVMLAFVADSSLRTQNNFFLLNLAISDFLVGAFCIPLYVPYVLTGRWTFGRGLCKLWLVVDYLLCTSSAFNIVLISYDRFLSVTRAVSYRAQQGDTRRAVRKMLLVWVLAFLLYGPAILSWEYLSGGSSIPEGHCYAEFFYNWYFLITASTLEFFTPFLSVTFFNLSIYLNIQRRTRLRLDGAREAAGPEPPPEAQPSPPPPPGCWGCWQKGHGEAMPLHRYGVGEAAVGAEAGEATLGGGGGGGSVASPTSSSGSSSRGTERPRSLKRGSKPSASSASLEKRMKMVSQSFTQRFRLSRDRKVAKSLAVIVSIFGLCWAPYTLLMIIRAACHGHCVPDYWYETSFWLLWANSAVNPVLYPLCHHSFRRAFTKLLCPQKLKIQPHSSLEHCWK
The test is described as follows: H3-receptor binding assay, recombinant human receptor. The settings on record: recombinant human receptor in HEK-293 membranes; 3 nM [3H]R-α-methyl histamine or [3H]Nα-methyl histamine, 30° C., 30 min. As to the method:
(§1) The source of the H3 receptors in this experiment was guinea pig brain. Alternatively, the source of H3 receptors was recombinant human receptor, expressed in HEK-293 (human embryonic kidney) cells.
(§2) All compounds to be tested were dissolved in DMSO and then diluted into the binding buffer (50 mM Tris, pH 7.5) such that the final concentration was 2 μg/ml with 0.1% DMSO. Membranes were then added (400 μg of protein, 5 μg in the case of recombinant human receptor) to the reaction tubes. The reaction was started by the addition of 3 nM [^3H]R-α-methyl histamine (8.8 Ci/mmol) or 3 nM [^3H]N^α-methyl histamine (80 Ci/mmol) and continued under incubation at 30° C. for 30 min. Bound ligand was separated from unbound ligand by filtration, and the amount of radioactive ligand bound to the membranes was quantitated by liquid scintillation spectrometry. All incubations were performed in duplicate and the standard error was always less than 10%. Compounds that inhibited more than 70% of the specific binding of radioactive ligand to the receptor were serially diluted to determine a Ki (nM).

Test [2] has as its target T2, H3 receptors, guinea pig brain (Cavia porcellus, UniProt Q9JI35).
T2 construct: The source of the H3 receptors in this experiment was guinea pig brain; from tissue; host or cells: guinea pig brain membranes
The test is described as follows: H3-receptor binding assay, guinea pig brain. The following applies: guinea pig brain membranes; 3 nM [3H]R-α-methyl histamine or [3H]Nα-methyl histamine, 30° C., 30 min. As to the method:
as §1
The animals weighed 400-600 g. The brain tissue was homogenized with a solution of 50 mM Tris, pH 7.5. The final concentration of tissue in the homogenization buffer was 10% w/v. The homogenates were centrifuged at 1,000×g for 10 min. in order to remove clumps of tissue and debris. The resulting supernatants were then centrifuged at 50,000×g for 20 min. in order to sediment the membranes, which were next washed three times in homogenization buffer (50,000×g for 20 min. each). The membranes were frozen and stored at −70° C. until needed.
as §2, with “All incubations were performed in duplicate and the standard error was always less than 10%. Compounds that inhibited more than 70% of the specific binding of radioactive ligand to the receptor were serially diluted to determine a Ki (nM).” left out

T2 sequence (Q9JI35 whole entry): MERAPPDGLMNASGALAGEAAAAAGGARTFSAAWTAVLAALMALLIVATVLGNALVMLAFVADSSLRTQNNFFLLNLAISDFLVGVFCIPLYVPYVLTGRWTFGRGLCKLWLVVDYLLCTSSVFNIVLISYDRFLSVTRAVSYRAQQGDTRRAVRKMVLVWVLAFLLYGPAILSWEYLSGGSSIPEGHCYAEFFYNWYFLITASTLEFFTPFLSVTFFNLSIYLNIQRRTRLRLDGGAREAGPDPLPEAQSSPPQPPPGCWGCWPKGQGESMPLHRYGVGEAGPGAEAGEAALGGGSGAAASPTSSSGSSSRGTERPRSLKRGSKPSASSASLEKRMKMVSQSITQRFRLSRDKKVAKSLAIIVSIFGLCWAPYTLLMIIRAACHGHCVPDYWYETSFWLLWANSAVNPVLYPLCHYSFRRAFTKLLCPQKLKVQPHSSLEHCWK

Consider `Nc1cc(CN2CCC(Oc3ccc(-n4c(-c5ccccn5)nc5cccnc54)cc3)CC2)ccn1` [Compound 4A], for which, in the test with mice fed a high-fat diet, the “Food intake Inhibition (%)” value was determined as 15.9% and the “Weight Gain Inhibition (%)” value is given as 74.1%.
In general, Ki refers to a dissociation constant, usually derived from enzyme kinetics or from competition with a known ligand. As to `Nc1cc(CN2CCC(Oc3ccc(-n4c(-c5ncccc5F)nc5cccnc54)cc3)CC2)ccn1` [Compound 69A], the Ki in test [1] amounted to 0.6 nM; in test [2], 18 nM.
Turning to `Nc1cc(CN2CCC(Oc3ccc(-n4c(C(F)(F)C(F)(F)F)nc5cccnc54)cc3)CC2)ccn1` [Compound 36A], in the test on mice fed a high-fat diet, the “Food intake Inhibition (%)” value is on record as 12.7% and the “Weight Gain Inhibition (%)” value is 58.0%.
For the compound `CN1CCN(c2ccc(OC3CCN(Cc4ccnc(N)c4)CC3)cc2)CC1` [Compound 22A], in the test on mice fed a high-fat diet, the “Food intake Inhibition (%)” value was 11.2% and the “Weight Gain Inhibition (%)” value is 42.4%.

Values taken from patent US7638531B2, “Phenoxypiperidines and analogs thereof useful as histamine H3 antagonists” (Schering Corporation, priority 2005, dated 2009).
